Our source for the EC50 and GI50 values is patent publication US20080045514A1 (Cytovia, Inc., priority 2006, published 2008).

The structures appear in SMILES notation. Counter-ions that a name gives are not always drawn.

Holding throughout (type): cell-based
The subject of assay [1] is human breast cancer cell line T-47D. Kind of assay: Caspase cascade activation (EC50), T-47D. The conditions noted are these: Homo sapiens; T47D cells; caspase cascade activation; read-out: caspase potency (EC50) T47D. An outline of the steps:
(§1)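 Test compound (0.016–10 μM final) is incubated with cells for 48 h at 37 °C. Caspase-3-like activity is measured by 3 h room-temperature cleavage of DEVD-R110 in PIPES pH 7.2 lysis buffer, with EC50 from sigmoidal fitting of background-corrected RFU relative to control.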

Assay [2] relates to human hepatocellular carcinoma cell line SNU398. Kind of assay: Caspase cascade activation (EC50), SNU398. The conditions noted are these: Homo sapiens, SNU-398; SNU398 cells; caspase cascade activation; read-out: caspase potency (EC50) SNU398. The procedure, abridged: as §1
Assay [3] concerns human colon carcinoma cell line HCT116. As to the kind of experiment: Caspase cascade activation (EC50), HCT116. The conditions noted are these: Homo sapiens, HCT-116; HCT116 cells; caspase cascade activation; read-out: caspase potency (EC50) HCT116. An outline of the steps:
as §1

In assay [4] the test system is human cancer cell line H1299. As to the kind of experiment: Caspase cascade activation (EC50), H1299. As to conditions: NCI-H1299, H1299 cells, read-out: caspase potency (EC50) H1299. On the procedure: Human breast cancer cell lines T-47D, human hepatocellular carcinoma cell line SNU398, human colon carcinoma cell line HCT116, human cancer cell line H1299, human Burkitt's lymphoma cell line Namalwa, human lymphoma cell line Raji, and human B cell lymphoblastoid cell line Ramos were grown according to media component mixtures designated by American Type Culture Collection+10% FCS (Invitrogen Corporation), in a 5% CO2-95% humidity incubator at 37° C. T-47D and H1299 cells were maintained at a cell density between 50 and 80% confluency at a cell density of 0.1 to 0.6×10^6 cells/mL. Cells were harvested at 600×g and resuspended at 0.65×10^6 cells/mL into appropriate media+10% FCS. An aliquot of 22.5 μL of cells was added to a well of a 384-well microtiter plate containing 2.5 μL of a 10% DMSO in RPMI-1640 media solution containing 0.16 to 100 μM of 3-(2-chlorophenyl)-6-(3,4-methylenedioxyphenyl)-7H-[1,2,4]triazolo[3,4-b][1,3,4]thiadiazine or other test compound (0.016 to 10 μM final). An aliquot of 22.5 μL of cells was added to a well of a 384-well microtiter plate containing 2.5 μL of a 10% DMSO in RPMI-1640 media solution without test compound as the control sample. The samples were mixed by agitation and then incubated at 37° C. for 48 h in a 5% CO2-95% humidity incubator. After incubation, the samples were removed from the incubator and 25 μL of a solution containing 14 μM of N—(Ac-DEVD)-N′-ethoxycarbonyl-R110 (SEQ ID No.:1) fluorogenic substrate (Cytovia, Inc.; WO99/18856), 20% sucrose (Sigma), 20 mM DTT (Sigma), 200 mM NaCl (Sigma), 40 mM Na PIPES buffer pH 7.2 (Sigma), and 500 μg/mL lysolecithin (Calbiochem) was added. The samples were mixed by agitation and incubated at room temperature. Using a fluorescent plate reader (Model SPECTRAfluor Plus, Tecan), an initial reading (T=0) was made approximately 1-2 min after addition of the substrate solution, employing excitation at 485 nm and emission at 530 nm, to determine the background fluorescence of the control sample. After the 3 h incubation, the samples were read for fluorescence as above (T=3 h). Calculation: The Relative Fluorescence Unit values (RFU) were used to calculate the sample readings as follows: RFU(T=3H)−Control RFU(T=0)=Net RFU(T=3h) The activity of caspase cascade activation was determined by the ratio of the net RFU value for 3-(2-chlorophenyl)-6-(3,4-methylenedioxyphenyl)-7H-[1,2,4]triazolo[3,4-b][1,3,4]thiadiazine (Example P) or other test compound to that of control samples. The EC50 (nM) was determined by a sigmoidal dose-response calculation (Prism 3.0, GraphPad Software Inc.).

The subject of assay [5] is human Burkitt's lymphoma cell line Namalwa. As to the kind of experiment: Caspase cascade activation (EC50), Namalwa. The conditions noted are these: Homo sapiens, Burkitts lymphoma cell; Namalwa cells; caspase cascade activation; read-out: caspase potency (EC50) Namalwa. The procedure, abridged:
as §1

The subject of assay [6] is human lymphoma cell line Raji. Kind of assay: Caspase cascade activation (EC50), Raji. The conditions noted are these: Homo sapiens, RAJI cells, read-out: caspase potency (EC50) RAJI. The procedure, abridged: as §1
Assay [7] deals with human B cell lymphoblastoid cell line Ramos. Kind of assay: Caspase cascade activation (EC50), Ramos. As to conditions: Homo sapiens, RAMOS cells, read-out: caspase potency (EC50) RAMOS. The procedure, abridged: as §1
Assay [8] deals with human colon carcinoma cell line HCT116. As to the kind of experiment: Inhibition of cell proliferation (GI50), HCT116. As to conditions: Homo sapiens; HCT 116 cells, 48 h, CellTiter-Glo. The protocol:
(§2) Human breast cancer cell lines T-47D, human hepatocellular carcinoma cell line SNU398, human colon carcinoma cell line HCT116, human lung cancer cell line H1299, human leukemia cell line K562, human lymphoma cell line Raji, human B cell lymphoblastoid cell line Ramos, and human Burkitt's lymphoma cell line Namalwa were grown and harvested as in Example 100. An aliquot of […] of cells (4.4×10^4 cells/mL) was added to a well of a 96-well microtiter plate containing 5 μL of a 10% DMSO in RPMI-1640 media solution containing 10 nM to 100 μM of 3-(2-chlorophenyl)-6-(3,4-methylenedioxyphenyl)-7H-[1,2,4]triazolo[3,4-b][1,3,4]thiadiazine (1 nM to 10 μM final). An aliquot of 45 μL of cells was added to a well of a 96-well microtiter plate containing 5 μL of a 10% DMSO in RPMI-1640 media solution without compound as the control sample for maximal cell proliferation (LMax). The samples were mixed by agitation and then incubated at 37° C. for 48 h in a 5% CO2-95% humidity incubator. After incubation, the samples were removed from the incubator and 25 μL of CellTiter-Glo™ reagent (Promega) was added. The samples were mixed by agitation and incubated at room temperature for 10-15 min. Plates were then read using a luminescent plate reader (Model SPECTRAfluor Plus, Tecan) to give Ltest values.
(§3) The samples were mixed by agitation and then incubated at 37° C. for 0.5 h in a 5% CO2-95% humidity incubator. After incubation, the samples were removed from the incubator and 25 μL of CellTiter-Glo™ reagent (Promega) was added. The samples were mixed by agitation and incubated at […] 10-15 min at room temperature in a 5% CO2-95% humidity incubator. Fluorescence was read as above, (LStart) defining luminescence for initial cell number used as baseline in GI50 determinations.
(§4) Calculation: GI50 (dose for 50% inhibition of cell proliferation) is the concentration where [(Ltest−LStart)/(LMax−LStart)]=0.5.
Background: In ATP-based viability assays light output follows the ATP content of the culture.

Assay [9] concerns human leukemia cell line K562. Kind of assay: Inhibition of cell proliferation (GI50), K562. As to conditions: Homo sapiens; K562 cells, 48 h, CellTiter-Glo. On the procedure:
as §2, §3, §4

Assay [10] deals with human lymphoma cell line Raji. As to the kind of experiment: Inhibition of cell proliferation (GI50), Raji. The conditions noted are these: Homo sapiens; Raji cells, 48 h, CellTiter-Glo. On the procedure: as §2, §3, §4
In assay [11] the test system is human B cell lymphoblastoid cell line Ramos. As to the kind of experiment: Inhibition of cell proliferation (GI50), Ramos. As to conditions: Homo sapiens; Ramos cells, 48 h, CellTiter-Glo. The protocol:
as §2, §3, §4

The subject of assay [12] is human Burkitt's lymphoma cell line Namalwa. Kind of assay: Inhibition of cell proliferation (GI50), Namalwa. The conditions noted are these: Homo sapiens, Burkitts lymphoma cell; Namalwa cells, 48 h, CellTiter-Glo. The protocol: as §2, §3, §4

By EC50 is commonly meant the concentration giving half of the maximal effect. Broadly, the GI50 is the concentration giving 50% growth inhibition. Read a low GI50 as more potent growth inhibition. For `CCOc1ccc(C2=Nn3c(nnc3-c3ccccc3C)SC2)cc1` [L, 3-(2-Methylphenyl)-6-(4-ethoxyphenyl)-7H-[1,2,4]triazolo[3,4-b][1,3,4]thiadiazine], the EC50 was found to be 1340 nM in [1]; 92 nM in assay [2]; 126 nM in [3]; 339 nM in [4]; 62 nM in assay [5]; 141 nM in assay [6]. In addition, the EC50 in [7] stood at 93 nM. Besides, the GI50 in [8] was 141 nM; in assay [9], 27 nM; in assay [10] it was 62 nM; in assay [11], 17 nM; in assay [12], 24 nM.

As to `COc1ccc(C2=Nn3c(nnc3-c3cccc(Cl)c3)SC2)cc1` [R, 3-(3-Chlorophenyl)-6-(4-methoxyphenyl)-7H-[1,2,4]triazolo[3,4-b][1,3,4]thiadiazine], the concentration giving a half-maximal response (EC50) in [1] came out at 557 nM; in [2] it was 115 nM; in [3] it was 242 nM; in assay [4] it was 553 nM; in [5], 122 nM; in assay [6] it was 109 nM. The EC50 in [7] worked out at 77 nM. The GI50 in assay [8] is 121 nM; in assay [9], 42 nM; in assay [10], 89 nM; in assay [11], 17 nM; in [12], 117 nM.

For the compound `COc1ccc(-c2nnc3n2N=C(c2ccc(C)cc2)CS3)c(OC)c1` [Example 15, 3-(2,4-Dimethoxyphenyl)-6-(4-methylphenyl)-7H-[1,2,4]triazolo[3,4-b][1,3,4]thiadiazine hydrobromide], the EC50 in [1] stood at 34 nM; in assay [2] it was 5 nM; in [3], 8 nM; in assay [5], 7 nM; in assay [6], 12 nM; in assay [7] it was 8 nM. For the same compound, the GI50 in [8] was 10 nM; in assay [9], 4 nM; in assay [10] it was 4 nM; in assay [11], 1 nM; in assay [12], 6 nM.

With `COc1ccc(-c2nnc3n2N=C(c2ccc(N=[N+]=[N-])cc2)CS3)cc1OC` [Example 31, 6-(4-Azidophenyl)-3-(3,4-dimethoxyphenyl)-7H-[1,2,4]triazolo[3,4-b][1,3,4]thiadiazine], the EC50 in assay [1] came to 2390 nM; in [2], 619 nM; in assay [3], 5550 nM; in [5] it was 544 nM; in assay [6] it was 534 nM; in [7], 520 nM. In addition, the GI50 in assay [8] turned out to be 4250 nM; in [9], 581 nM; in assay [10] it was 6330 nM; in [11], 503 nM; in assay [12] it was 1470 nM.

Consider `COc1ccc(C2=Nn3c(nnc3-c3ccccc3F)SC2)cc1` [Example L2, 3-(2-Fluorophenyl)-6-(4-methoxyphenyl)-7H-[1,2,4]triazolo[3,4-b][1,3,4]thiadiazine], for which the EC50 in assay [1] worked out at 553 nM; in [2], 55 nM; in [3], 122 nM; in assay [5], 76 nM; in [6], 85 nM; in assay [7] it was 60 nM. Further, the 50% growth inhibitory concentration (GI50) was determined as 142 nM in assay [8]; 34 nM in assay [9]; 247 nM in assay [10]; 20 nM in assay [11]; 68 nM in [12].

Regarding `COc1cc(OC)cc(-c2nnc3n2N=C(c2ccc(C)cc2)CS3)c1` [Example 12, 3-(3,5-Dimethoxyphenyl)-6-(4-methylphenyl)-7H-[1,2,4]triazolo[3,4-b][1,3,4]thiadiazine hydrochloride], the EC50 in [1] amounted to 760 nM; in assay [2], 61 nM; in assay [3], 71 nM; in [5] it was 20 nM; in [6], 55 nM; in [7], 20 nM. The GI50 in assay [8] turned out to be 50 nM; in assay [9], 7 nM; in assay [10], 15 nM; in assay [11], 5 nM; in [12], 6 nM.

With `COc1ccc(-c2nnc3n2N=C(c2ccc(C)cc2)CS3)cc1OC` [Example 14, 3-(3,4-Dimethoxyphenyl)-6-(4-methylphenyl)-7H-[1,2,4]triazolo[3,4-b][1,3,4]thiadiazine hydrobromide], the EC50 is 396 nM in assay [1]; 65 nM in assay [2]; 107 nM in assay [3]; 131 nM in [5]; 198 nM in assay [6]; 125 nM in [7]. In addition, the GI50 in assay [8] was 1010 nM; in assay [9], 87 nM; in assay [10] it was 838 nM; in assay [11], 300 nM; in assay [12], 137 nM.

For `COc1ccccc1-c1nnc2n1N=C(c1ccc(N3CCOCC3)cc1)CS2` [Example 25, 3-(2-Methoxyphenyl)-6-(4-morpholinophenyl)-7H-[1,2,4]triazolo[3,4-b][1,3,4]thiadiazine], the EC50 in [1] came out at 612 nM; in assay [2] it was 694 nM; in assay [3] it was 1260 nM; in assay [5], 321 nM; in [6], 511 nM; in assay [7] it was 275 nM. Moreover, the GI50 in [8] is 1980 nM; in assay [9], 317 nM; in [10], 285 nM; in assay [11], 105 nM; in assay [12] it was 161 nM.
